Experimental findings from patent US9040261B2, “Compounds as L-cystine crystallization inhibitors and uses thereof” (NEW YORK UNIVERSITY, priority 2009, dated 2015) are described below.

“Also recorded” adds a separate entry of the source.

The nature of this assay: Real time in situ AFM step velocity measurements, static conditions. The method, then:
A Digital Instruments (Santa Barbara, Calif.) Nanoscope IIIa Multimode system was used for topographical and lattice imaging. All measurements were performed in contact mode using Veeco NP_B Si3N4 cantilever tips with a spring constant of 0.12N/m (triangular, 196 μm length, 41 μm width) on a glass cantilever holder, and a liquid cell was created for in situ step velocity measurements. All L-cystine crystals for AFM measurements were prepared by method 1. Crystals were transferred onto an AFM specimen disk coated with partially cured (1 hr) UV-curable optical cement (Type SK-9, EMS Acquisition Corp.) by gently pressing the disk against hexagonal platelets or L-cystine needles isolated by filtration (Whatman Nuclepore membrane, 8 μm). The (0001) face of hexagonal platelets was exposed normal to the disk for AFM analysis with growth occurring along equivalent {1010} faces in the lateral directions, while the sides of L-cystine needles were exposed normal to the disc. The partially cured polymer with adhered crystals was completely cured by additional UV radiation (2 hrs) prior to analysis. Measurements of individual step heights for hexagonal L-cystine crystals were acquired in air (contact mode) at a scan rate of 1.00 Hz and 256 samples per line over a 15×15 μm^2 surface area. Integral and proportional gains were set to the highest possible values without obtaining feedback. Four hexagonal crystals (5 areas per crystal) were analyzed for statistical step height distributions, which were calculated from >10^3 individual steps. Lattice-resolved images of crystal surfaces were acquired in water (contact mode) using a scan rate of 112 Hz over a 12×12 nm^2 area.
Real time in situ step velocity measurements of L-cystine growth were assessed along six structurally-equivalent {1010} faces of the hexagonal structure. A liquid cell was created with the glass cantilever tip holder, and working solutions were injected through a 1-mL syringe. Prior to injecting the growth medium (i.e. supersaturated L-cystine solution), crystals were etched with deionized water in the fluid cell for one hour to remove amorphous deposits or impurities that may be present on the surface. Supersaturated solutions (0.5 g/L) were generated by adding L-cystine to deionized water, boiling the solution on a heating mantle for 20 min to completely dissolve the solute, and allowing the solution to cool for 20 min on the heating mantle before transferring the solution (via syringe) to the AFM fluid cell. […]
The effect of additives on crystal growth rates was investigated. […] For each measurement, growth was first assessed in the absence of additive, then in the presence of additive on the identical area of the crystal surface to analyze relative changes in step velocity. […]

As for `COC(=O)[C@@H](N)CSSC[C@H](N)C(=O)OC.Cl.Cl` [CDME, Cystine Dimethyl Ester Dihydrochloride], the “advancement of higher {1010} steps” value (5.0 g/L CDME, 0.5 g/L L-cystine, step heights >0.6 nm, larger than 1 nm, Dihydrochloride) is given as “suppresses; also recorded: completely suppressed”. Moreover, the “Step velocity of 1-nm steps” value (large excess of CDME (5 g/L), 29 nm/min in the absence of additive) is given as 7 nm/min.
